# Experimental data as given in patent US20170368134A1, “PROTEASOME INHIBITORS FOR TREATING A DISORDER RELATED TO AN ACCUMULATION OF NON-DEGRADED ABNORMAL PROTEIN OR A CANCER” (UNIVERSITÉ D'AIX-MARSEILLE, priority 2015, published 2017).
# Peptide text beside a SMILES is read from it. * marks the point of attachment. Cbz = O=C(OCc1ccccc1)*
# How the values were obtained:
# [1] = system: lamin A; assay: Western blot of lamin A protein in HGPS fibroblasts; assay type: cell-based, human; conditions: 48 h treatment with MG132 (10 μM)
# Experimental: Total fibroblast proteins were extracted in 200 μL of NP40 Cell Lysis buffer (Invitrogen, Carlsbad, Calif.) containing Protease and Phosphatase Inhibitor Cocktail (Thermo Scientific). Alternatively, cells were lysed with urea (8 M urea, 5 mM dithiothreitol, 150 mM NaCl, 50 mM Tris-Cl pH 7.5, protease and phosphatase Inhibitor Cocktail (Thermo Scientific)). Cells were sonicated twice (30 sec each), incubated at 4° C. for 30 minutes and then centrifuged at 10,000 g for 10 minutes. Protein concentration was evaluated with the bicinchoninic acid technique (Pierce BCA Protein Assay Kit), absorbance at 562 nm is measured using nanodrop 1000 (Thermo Fisher Scientific Inc.) Equal amounts of proteins (40 μg) were loaded onto 10% Tis-Glycine gel (Criterion™ XT precast gel) using XT Tricine running Buffer (Biorad, USA). After electrophoresis, gels were electro transferred onto nitrocellulose membranes or Immobilon-FL polyvinylidene fluoride membranes (Millipore), blocked in Odyssey Blocking Buffer diluted 1:1 in PBS for 1 hour at room temperature, and incubated overnight at 4° C. or 2 hours at room temperature with various primary antibodies. […]
# [2] = system: progerin; assay: Immunofluorescence of subcellular progerin localization; assay type: cell-based, human; conditions: HGPS cell lines, 48 h MG132 exposure
# Experimental: Cells collected by centrifugation were spread onto polylysine-coated slides by centrifugation (300 rpm for 5 minutes) with a cytospin (Shandon). Cells were then fixed at room temperature for 10 minutes in 2% (w/v) paraformaldehyde in PBS pH 7.2. Slides were stored at −80° C. prior to use. Cells were permeabilized using 100 μL permeabilization buffer (0.5% Triton X-100, 50 mM NaCl, 300 mM sucrose, 20 mM HEPES pH 7.5, 3 mM MgCl2) for 3 minutes at RT. Non-specific antibody binding was blocked with 3% Bovine Serum Albumin in PBS (w/v) (PBS-BSA) for 30 minutes. The permeabilized cells were incubated with the primary antibodies for 3 h at 37° C. After washing, the cells were then incubated with secondary antibodies (A11001, A11058, Life Technologies; 1/400) for 20 minutes at 37° C. Nuclei were stained with DAPI (50 ng/ml) diluted in Vectashield (Abcys) for 10 minutes at RT. Samples were fixed in 4% paraformaldehyde for 5 min. […]
# It has been reported that the MG132 can lead to PML-NBs component proteins being translocated into the nucleolus. […] Therefore, nucleolus might function as an alternative sequestration site that immobilizes and temporarily stores accumulated progerin when proteasome-dependent degradation is blocked, as the inventors detected PML and LC3B cytosolic colocalization upon 24 h MG132 treatment (data not shown). […]
# [3] = system: lamin C; assay: Intramuscular MG132 in Lmna G609G/G609G mice, lamin C in gastrocnemius muscle; assay type: in vivo, mouse
# Experimental: (A) Lamin A, progerin, lamin C and SRSF-1 specific bands, corresponding to DMSO-treated left muscle (−) and 1 μg/Kg MG132-treated right muscle (+), were quantified by ImageJ software and their expression levels were normalized to GAPDH values.
# (§1) Knock-in mouse model (Lmna^G609G/G609G) carrying the c.1827C>T (p.Gly609Gly) mutation in the endogenous Lmna gene, corresponding to the human HGPS mutation c.1824C>T (p.Gly609Gly) have been described previously (31). MG132 (1 or 10 μg/Kg body weight) was injected under isoflurane anesthesia into the right gastrocnemius muscle of […] homozygous knock-in mice (Lmna^G609G/G609G) 3 times per week for 2 weeks. Contralateral muscle served as control (DMSO). MG132 was dissolved in dimethyl sulfoxide (DMSO) and then diluted in 100 μl sterile phosphate-buffered saline (PBS) for intramuscular injection. […] Animal experiments have been carried out in compliance with the European guidelines for the care and use of laboratory animals (EU directive 2010/63/EU) and in accordance with the recommendations provided by the guide for the care and use of the laboratory animals of the French national Institute for Health and Medical Research (INSERM) and the ethical committee of Aix-Marseille University.
# [4] = Tolerability of intramuscular MG132 in Lmna G609G/G609G mice; assay type: in vivo, mouse; conditions: 1 or 10 μg/Kg intramuscular
# Experimental: as §1
# [5] = system: Act88F-PABPN1-17ala-expressing flies; assay: Wing posture defects in Drosophila OPMD model; assay type: in vivo; conditions: oral in food, from larval stages, Day 3 to Day 11 of adulthood, vs DMSO alone
# Experimental: Drug supplemented food was prepared as follows. Instant Drosophila medium (Carolina Biological Supply Company) was reconstituted in each vial with a solution of 1% yeast in water, supplemented with either increasing concentrations of drug solubilized in DMSO (dimethyl sulfoxide), or DMSO alone. MG132 was purchased from Santa Cruz Biotechnology (SC-201270). Each vial contained 5 ml or 2.5 ml of reconstituted medium, to raise larvae or adults, respectively. Individuals were fed with the drug from larval stages. 70 to 80 first instar larvae were transferred per vial and developed in the same vial up to adulthood; adults were transferred in a new vial with the same concentration of drug. […] Abnormal wing posture was quantified by collecting adult males at birth, pooling five males per vial and scoring abnormal wing position each day by direct observation of the flies through the vials, without anesthesia.
# The inventors used the Drosophila model in which PABPN1-17ala is expressed constitutively in adult indirect flight muscles from the Act88F-PABPN1-17ala transgene (90), to assay the effect of MG132 in vivo. […] Wing posture defects were recorded from Day 3 to Day 11 of adulthood. The effect of MG132 was quantified by recording the number of Act88F-PABPN1-17ala-expressing flies with abnormal wing posture.
smiles,measurement,setting,value
"CC(C)C[C@@H](C=O)NC(=O)[C@H](CC(C)C)NC(=O)[C@H](CC(C)C)NC(=O)OCc1ccccc1 [MG132, Z-Leu-Leu-Leu-al] (Cbz-Leu-Leu-Leu-aldehyde)",lamin A protein levels,[1],increased
same,subcellular progerin localization,[2],progerin accumulates into autophagic vacuoles
same,lamin C level in treated muscle,"[3]; 1 μg/Kg intramuscular, change not significant",decrease of lamin C
same,lamin C level in treated muscle,[3]; 10 μg/kg body weight intramuscular,decrease in lamin C
same,apparent damage or stress responses,[4],Neither vehicle alone nor MG132 treatment produced any apparent damage or stress responses
same,number of flies with abnormal wing posture,[5],significant decrease in the number of flies with abnormal wing posture
